The values that follow come from US20160051567A1, “PREVENTION AND TREATMENT OF KIDNEY DAMAGE” (METSELEX, INC., priority 2013, published 2016).

Series [1] deals with JNK. Briefly: Western blot for JNK in RPTE cells after cryopreservation injury. The series is classed as cell-based, human. The following applies: 100 and 150 μM. Here is the method:
(§1) Cell culture: RPTE cells were grown in Renal Epithelial Cell Basal Medium (REBM) with full supplements at 37° C. in 5% CO2 incubator as per supplier's instructions. RPTE cells were able to proliferate for 6-8 passages under the culture conditions.
(§2) Cryopreservation injury: We have utilized a published cell culture model of cryopreservation injury. In brief, RPTE cells were grown to 80% confluence in the complete medium containing TUDCA or vehicle. The complete medium was then replaced with University of Wisconsin solution containing TUDCA or vehicle. The culture plates were subsequently incubated in a temperature-regulated refrigerator at 4° C. for 48 hours. […]
(§3) Protein extraction: Frozen kidney tissue was ground in liquid nitrogen using a pestle and mortar. […] The amount of protein present in the solution was quantified by the Bicinchoninic Acid Protein Assay kit as per manufacturer's protocol.
(§4) Western blot analysis: 20 μg of protein was mixed with SDS-PAGE sample buffer, boiled for 5 minutes, electrophoresed on a 12% Tris-HCl SDS-PAGE gel for 1 hour at 200 V, and electroblotted onto a nitrocellulose membrane. […] The immunoblot was detected using SuperSignal West Femto Maximum Sensitivity Substrate Kit. […]
A general note: In western blotting, separated proteins are transferred to a membrane and probed.

In a further series the test system is caspase-3. Briefly: Caspase-3 activity assay in RPTE cells after cryopreservation injury. The following applies: 150-600 μM, dose-dependent, p<0.05. The series is classed as cell-based, human. As to the method: as §1, §2, §3
Caspase-3 activity assay: The caspase-3 activity in kidney and RPTE extracts was quantified using Apo-One® Homogeneous Caspase-3/7 Assay kit as per the manufacturer's protocol. […] Fluorescence was measured by Spectramax M12 fluorescent plate reader (Molecular Devices) using wavelengths of 485 nmEx/520 nmEm. […]

Series [2] relates to JNK. The series is described as follows: Western blot for p-JNK in kidney after AKI. Type of series: in vivo. The following applies: rat kidney after AKI, TUDCA vs vehicle group. As to the method: (§5) Rat model of AKI: All experiments were performed in accordance with the Institutional Animal Care and Use Committee. Six to eight week old Sprague-Dawley rats were anaesthetized by isoflurane gas, a midline abdominal incision was made, and bilateral renal pedicles were clamped for 45 minutes maintaining body temperature at 37° C. After removing the clamps, the abdomen was closed in two layers by using 4-0 absorbable sutures and Reflex 9 mm clips. Blood samples were obtained daily by tail vein puncture. Blood urea levels were measured by the improved Jung method using the QuantiChrom™ Urea Assay Kit as per manufacturer's protocol. Kidneys were harvested five days following surgery.
Administration of TUDCA: 200 mg/mL of TUDCA (Sigma) was dissolved in phosphate buffered saline at pH 7.5. […]
as §3, §4

Another series has as its system p38. The series is described as follows: Western blot for p38 in RPTE cells after cryopreservation injury. The series is classed as cell-based, human. The following applies: 100 and 150 μM. As to the method:
as §1, §2, §3, §4

For series [3], the system named is human renal proximal tubular epithelial cells (RPTE). Briefly: Viability assay (MultiTox-Glo) in RPTE cells. Type of series: cell-based. The following applies: 15 μM to 1200 μM, 24 hours. As to the method:
as §1
Viability and Cytotoxicity Assays: Cytotoxicity and viability were determined using MultiTox-Glo Multiplex Cytotoxicity Assay kit as per manufacturer's protocols. RPTE cells were seeded in 96-well culture plates at a density of 1.2×10^4 cells per well. Subsequently, TUDCA was added to the wells to achieve final concentrations of 15, 150, 300, 450, 600, and 1200 μM. Following 24 hours of culture, to determine viability, 50 μL of GF-AFC Reagent was added to each well. The plates were gently shaken and incubated at 37° C. for 30 minutes in the dark. The cell viability was determined by measuring fluorescence at 400 nmEx/505 nmEm. Subsequently, to determine cytotoxicity, 50 μL of AAF-Glo Reagent was added to each well. The plates were shaken gently and incubated at room temperature for 15 minutes in the dark. Cytotoxicity was determined by measuring luminescence as per manufacturer's protocol.

For the next series, the system named is rat model of AKI. The series is described as follows: Rat model of AKI (warm ischemia reperfusion), blood urea levels. The series is classed as in vivo. The following applies: 400 mg/kg/day intraperitoneal. As to the method: as §5
Administration of TUDCA: 200 mg/mL of TUDCA (Sigma) was dissolved in phosphate buffered saline at pH 7.5. 400 mg/kg of TUDCA or equal volume of vehicle was administered to rats by daily intraperitoneal injection from three days prior to surgery […] to five days (day 5) following surgery. The TUDCA dose was based on previous studies and its solubility at physiological pH.

The conditions of series [4]: TUDCA over UDCA; cited from earlier work.

With `C[C@H](CCC(=O)NCCS(=O)(=O)O)[C@H]1CC[C@H]2[C@@H]3[C@@H](O)C[C@@H]4C[C@H](O)CC[C@]4(C)[C@H]3CC[C@]12C` [TUDCA, tauroursodeoxycholic acid], in the series with JNK [1], the “effect on JNK” value is on record as “no effect”. Besides, in the series with caspase-3, the “caspase-3 activation after cryopreservation injury” value was “significantly inhibited”. The “amount of p-JNK” value in the series with JNK [2] is “No difference”. For the same compound, in the series on p38, the “effect on p38” value is on record as “no effect”. Also, the cell viability entry in series [3] is “None of the tested concentrations of TUDCA decreased cell viability”. The “elevation in blood urea levels vs vehicle group” value in the series with rat model of AKI (days 1 (p<0.001) and 2 (p<0.01) following AKI) was “significantly less elevation in blood urea levels”. In addition, in the series on rat model of AKI (days 3-5 following AKI), the “blood urea vs vehicle group” value is reported as “blood urea was lower in the TUDCA-treated rats, the difference was not statistically significant”. The “solubility at physiological pH compared with UDCA” value in series [4] is listed as “higher solubility at physiological pH”.
